tested on: Myotonic Dystrophy 1 affected patient fibroblasts (Coriell GM04602; 1600 CTG repeats); assay: DM1 foci reduction assay (CAG10-Cy3 FISH, average foci per nucleus); assay type: cell-based; settings: Homo sapiens, Fibroblast, 48 h, read-out: Foci Reduction in Fibroblast EC50, 48 h (nM)
In short: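 DM1 patient fibroblasts (GM04602, 1600 CTG) treated 48 h at 37 °C, 8-point 1:3 dilutions from 3 μM top dose; wild-type GM07492 as control. PFA-fixed, ethanol-permeabilized cells hybridized overnight with 5 nM CAG10-Cy3 probe, DAPI-counterstained, imaged at 20× in 4 fields; average foci per nucleus per well.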

Compound | EC50 [nM]
CCN(CC)CCCC[C@H](NC(=O)[C@H](CC(C)C)NC(=O)[C@H](C)NC(=O)[C@H](Cc1ccccc1)NC(=O)c1ccc(C(C)(C)C)cc1)C(=O)N[C@@H](CO)C(=O)NCCOCCOCCOCCOCCOCCNC(=O)c1cc(NC(=O)c2nc(NC(=O)CCNC(=O)c3cc(NC(=O)c4nc(NC(=O)CCCNC(=O)c5cc(NC(=O)c6nc(NC(=O)CCNC(=O)c7cc(NC(=O)c8nccn8C)cn7C)cn6C)cn5C)cn4C)cn3C)cn2C)cn1C [Compound 130] | < 100
CCN(CC)CCCC[C@H](NC(=O)[C@H](CC(C)C)NC(=O)[C@H](C)NC(=O)[C@H](Cc1ccccc1)NC(=O)c1ccc(C(C)(C)C)cc1)C(=O)N[C@@H](CO)C(=O)NCCOCCOCCOCCOCCOCCNC(=O)c1cc(NC(=O)c2nc(NC(=O)CCNC(=O)c3cc(NC(=O)c4nc(NC(=O)[C@H](CCNC(=O)c5cc(NC(=O)c6nc(NC(=O)CCNC(=O)c7cc(NC(=O)c8nccn8C)cn7C)cn6C)cn5C)NC(C)=O)cn4C)cn3C)cn2C)cn1C [Compound 132] | < 100
CCCNC(=O)c1cc(NC(=O)c2nc(NC(=O)CCNC(=O)c3cc(NC(=O)c4nc(NC(=O)[C@@H](CCNC(=O)c5cc(NC(=O)c6nc(NC(=O)CCNC(=O)c7cc(NC(=O)c8nccn8C)cn7C)cn6C)cn5C)NC(=O)COCCOCCOCCOCCOCCNC(=O)[C@H](CO)NC(=O)[C@H](CCCCN(CC)CC)NC(=O)[C@H](CC(C)C)NC(=O)[C@H](C)NC(=O)[C@H](Cc5ccccc5)NC(=O)c5ccc(C(C)(C)C)cc5)cn4C)cn3C)cn2C)cn1C [Compound 133] | 100 to 500
CCN(CC)CCCC[C@H](NC(=O)[C@H](CC(C)C)NC(=O)[C@H](C)NC(=O)[C@H](Cc1ccccc1)NC(=O)c1ccc(C(C)(C)C)cc1)C(=O)N[C@@H](CO)C(=O)NCCOCCOCCOCCOCCOCC(=O)N[C@H](CCNC(=O)c1cc(NC(=O)c2nc(NC(=O)CCNC(=O)c3cc(NC(=O)c4nccn4C)cn3C)cn2C)cn1C)C(=O)Nc1cn(C)c(C(=O)Nc2cc(C(=O)NCCC(=O)Nc3cn(C)c(C(=O)Nc4cc(C(=O)NCCO)n(C)c4)n3)n(C)c2)n1 [Compound 134] | > 500
CCN(CC)CCCC[C@H](NC(=O)[C@H](CC(C)C)NC(=O)[C@H](C)NC(=O)[C@H](Cc1ccccc1)NC(=O)c1ccc(C(C)(C)C)cc1)C(=O)N[C@@H](CO)C(=O)NCCOCCOCCOCCOCCOCCNC(=O)CCNC(=O)c1cc(NC(=O)c2nc(NC(=O)CCNC(=O)c3cc(NC(=O)c4nc(NC(=O)CCCNC(=O)c5cc(NC(=O)c6nc(NC(=O)CCNC(=O)c7cc(NC(=O)c8nccn8C)cn7C)cn6C)cn5C)cn4C)cn3C)cn2C)cn1C [Compound 135] | > 500
CCCNC(=O)CCNC(=O)c1nc(NC(=O)c2nc(NC(=O)CCNC(=O)c3nc(NC(=O)[C@@H](CCNC(=O)c4cc(NC(=O)c5nc(NC(=O)CCNC(=O)c6cc(NC(=O)c7nccn7C)cn6C)cn5C)cn4C)NC(=O)COCCOCCOCCOCCOCCNC(=O)[C@H](CO)NC(=O)[C@H](CCCCN(CC)CC)NC(=O)[C@H](CC(C)C)NC(=O)[C@H](C)NC(=O)[C@H](Cc4ccccc4)NC(=O)c4ccc(C(C)(C)C)cc4)cn3C)cn2C)cn1C [Compound 137] | < 100
CCN(CC)CCCC[C@H](NC(=O)CCCCOCCNC(=O)c1ccc(C(C)(C)C)cc1)C(=O)N[C@@H](CO)C(=O)NCCOCCOCCOCCOCCOCCNC(=O)CCNC(=O)c1nc(NC(=O)c2cc(NC(=O)CCNC(=O)c3nc(NC(=O)CCCNC(=O)c4cc(NC(=O)c5nc(NC(=O)CCNC(=O)c6cc(NC(=O)c7nccn7C)cn6C)cn5C)cn4C)cn3C)cn2C)cn1C [Compound 138] | 100 to 500
CCN(CC)CCCC[C@H](NC(=O)CCCCCCCNC(=O)c1ccc(C(C)(C)C)cc1)C(=O)N[C@@H](CO)C(=O)NCCOCCOCCOCCOCCOCCNC(=O)CCNC(=O)c1nc(NC(=O)c2cc(NC(=O)CCNC(=O)c3nc(NC(=O)CCCNC(=O)c4cc(NC(=O)c5nc(NC(=O)CCNC(=O)c6cc(NC(=O)c7nccn7C)cn6C)cn5C)cn4C)cn3C)cn2C)cn1C [Compound 139] | < 100
CCN(CC)CCCC[C@H](NC(=O)COCCOCCOCCNC(=O)c1ccc(C(C)(C)C)cc1)C(=O)N[C@@H](CO)C(=O)NCCOCCOCCOCCOCCOCCNC(=O)CCNC(=O)c1nc(NC(=O)c2cc(NC(=O)CCNC(=O)c3nc(NC(=O)CCCNC(=O)c4cc(NC(=O)c5nc(NC(=O)CCNC(=O)c6cc(NC(=O)c7nccn7C)cn6C)cn5C)cn4C)cn3C)cn2C)cn1C [Compound 140] | 100 to 500
CCN(CC)CCCC[C@H](NC(=O)CCCCOCCOCCNC(=O)c1ccc(C(C)(C)C)cc1)C(=O)N[C@@H](CO)C(=O)NCCOCCOCCOCCOCCOCCNC(=O)CCNC(=O)c1nc(NC(=O)c2cc(NC(=O)CCNC(=O)c3nc(NC(=O)CCCNC(=O)c4cc(NC(=O)c5nc(NC(=O)CCNC(=O)c6cc(NC(=O)c7nccn7C)cn6C)cn5C)cn4C)cn3C)cn2C)cn1C [Compound 141] | 100 to 500
CC(C)CN(CCCC[C@H](NC(=O)COCCOCCNC(=O)c1ccc(C(C)(C)C)cc1)C(=O)N[C@@H](CO)C(=O)NCCOCCOCCOCCOCCOCCNC(=O)CCNC(=O)c1nc(NC(=O)c2cc(NC(=O)CCNC(=O)c3nc(NC(=O)CCCNC(=O)c4cc(NC(=O)c5nc(NC(=O)CCNC(=O)c6cc(NC(=O)c7nccn7C)cn6C)cn5C)cn4C)cn3C)cn2C)cn1C)C1CC2CCC1C2 (stereo partly shown) [Compound 144] | < 100

same assay, conditions: Homo sapiens, Fibroblast; DM1 fibroblasts, 48 h treatment, 8-point dose response, 3 μM top dose; read-out: Foci Reduction in Fibroblast EC50, 48 h

Compound | EC50 [nM]
Cn1cc(NC(=O)c2cc(NC(=O)c3nc(NC(=O)c4cc(NC(=O)[C@@H](N)CCNC(=O)c5nc(NC(=O)CCNC(=O)c6cc(NC(=O)c7nccn7C)cn6C)cn5C)cn4C)cn3C)cn2C)cc1C(=O)NCCOCCOCCOCCOCCOCCOCCOCCOCCOCCOCCOCCOCCOCCOCCOCCN1CCC(C(=O)Nc2ncc(SCc3ncc(C(C)(C)C)o3)s2)CC1 [Compound 121] | > 500
CC(C)c1cnn2c(NCc3ccc(OCCOCCOCCOCCOCCOCCNC(=O)c4cc(NC(=O)c5cc(NC(=O)c6nc(NC(=O)c7cc(NC(=O)[C@@H](N)CCNC(=O)c8nc(NC(=O)CCNC(=O)c9cc(NC(=O)c%10nccn%10C)cn9C)cn8C)cn7C)cn6C)cn5C)cn4C)cc3-n3cccn3)nc(OC3CCCNC3)nc12 (stereo partly shown) [Compound 122] | > 500
Cn1cc(NC(=O)c2nc(NC(=O)CCNC(=O)c3cc(NC(=O)c4nccn4C)cn3C)cn2C)cc1C(=O)NCCCC(=O)Nc1cn(C)c(C(=O)NCCC(=O)Nc2cc(C(=O)Nc3cn(C)c(C(=O)NCCC(=O)NCCOCCOCCn4cc(CC(=O)Nc5ccc(C(=O)Nc6ccccc6N)cc5)nn4)n3)n(C)c2)n1 [Compound 123] | > 500
Cn1cc(NC(=O)c2nc(NC(=O)CCNC(=O)c3cc(NC(=O)c4nccn4C)cn3C)cn2C)cc1C(=O)NCCCC(=O)Nc1cn(C)c(C(=O)NCCC(=O)Nc2cc(C(=O)Nc3cn(C)c(C(=O)NCCC(=O)NCCOCCOCCOCCOCCOCCOCCn4cc(CC(=O)Nc5ccc(C(=O)Nc6ccccc6N)cc5)nn4)n3)n(C)c2)n1 [Compound 124] | > 500
Cn1cc(NC(=O)c2nc(NC(=O)CCNC(=O)c3cc(NC(=O)c4nccn4C)cn3C)cn2C)cc1C(=O)NCCCC(=O)Nc1cn(C)c(C(=O)NCCC(=O)Nc2cc(C(=O)Nc3cn(C)c(C(=O)NCCC(=O)NCCOCCOCCn4cc(CCCCN(Cc5ccc(C(=O)NO)cc5)C(=O)Nc5ccccc5)nn4)n3)n(C)c2)n1 [Compound 125] | > 500
Cn1cc(NC(=O)c2nc(NC(=O)CCNC(=O)c3cc(NC(=O)c4nccn4C)cn3C)cn2C)cc1C(=O)NCCCC(=O)Nc1cn(C)c(C(=O)NCCC(=O)Nc2cc(C(=O)Nc3cn(C)c(C(=O)NCCC(=O)NCCOCCOCCOCCOCCOCCOCCn4cc(CCCCN(Cc5ccc(C(=O)NO)cc5)C(=O)Nc5ccccc5)nn4)n3)n(C)c2)n1 [Compound 126] | > 500
CCCCN(Cc1ccc(C(=O)NO)cc1)C(=O)Nc1ccc(OCc2cn(CCOCCOCCNC(=O)CCNC(=O)c3nc(NC(=O)c4cc(NC(=O)CCNC(=O)c5nc(NC(=O)CCCNC(=O)c6cc(NC(=O)c7nc(NC(=O)CCNC(=O)c8cc(NC(=O)c9nccn9C)cn8C)cn7C)cn6C)cn5C)cn4C)cn3C)nn2)cc1 [Compound 127] | > 500
CCCCN(Cc1ccc(C(=O)NO)cc1)C(=O)Nc1ccc(OCc2cn(CCOCCOCCOCCOCCOCCOCCNC(=O)CCNC(=O)c3nc(NC(=O)c4cc(NC(=O)CCNC(=O)c5nc(NC(=O)CCCNC(=O)c6cc(NC(=O)c7nc(NC(=O)CCNC(=O)c8cc(NC(=O)c9nccn9C)cn8C)cn7C)cn6C)cn5C)cn4C)cn3C)nn2)cc1 [Compound 128] | > 500
Cn1cc(NC(=O)c2nc(NC(=O)CCNC(=O)c3cc(NC(=O)c4nccn4C)cn3C)cn2C)cc1C(=O)NCCCC(=O)Nc1cn(C)c(C(=O)NCCC(=O)Nc2cc(C(=O)Nc3cn(C)c(C(=O)NCCC(=O)NCCOCCOCCOCCOCCOCCOc4ccc(NC(=O)CCCCCCC(=O)NO)cc4)n3)n(C)c2)n1 [Compound 129, N-hydroxy-N′-{4-[(17-{3-[(1-methyl-4-{1-methyl-4-[3-({1-methyl-4-[4-({1-methyl-4-[1-methyl-4-(3-{[1-methyl-4-(1-methylimidazole-2-amido)pyrrol-2-yl]formamido}propanamido)imidazole-2-amido]pyrrol-2-yl}formamido)butanamido]imidazol-2-yl}formamido)propanamido]pyrrole-2-amido}imidazol-2-yl)formamido]propanamido}-3,6,9,12,15-pentaoxaheptadecan-1-yl)oxy]phenyl}octanediamide] | > 500
COc1cccc(C(=O)N2CCN(C(=O)CN(CCOCCOCCOCCOCCOCCNC(=O)CCNC(=O)c3nc(NC(=O)c4cc(NC(=O)CCNC(=O)c5nc(NC(=O)CCCNC(=O)c6cc(NC(=O)c7nc(NC(=O)CCNC(=O)c8cc(NC(=O)c9nccn9C)cn8C)cn7C)cn6C)cn5C)cn4C)cn3C)c3cccc(C)c3)CC2)c1OC [Compound 142] | 100 to 500
COc1cccc(C(=O)N2CCN(C(=O)CN(C(=O)COCCOCCOCCOCCOCCNC(=O)CCNC(=O)c3nc(NC(=O)c4cc(NC(=O)CCNC(=O)c5nc(NC(=O)CCCNC(=O)c6cc(NC(=O)c7nc(NC(=O)CCNC(=O)c8cc(NC(=O)c9nccn9C)cn8C)cn7C)cn6C)cn5C)cn4C)cn3C)c3ccc(NC(N)=O)c(C)c3)CC2)c1OC [Compound 143] | > 500
